The test system of this data set is CCRIS mutagenicity, Ames/micronucleus/aberration tests. Briefly: CCRIS mutagenicity studies.
Where [1] appears, read: Test System: AMES SALMONELLA TYPHIMURIUM, Strain/Indicator: TA98, Metabolic Activation: NONE, Method: PREINCUBATION
Setting [2] is: Test System: AMES SALMONELLA TYPHIMURIUM, Strain/Indicator: TA100, Metabolic Activation: NONE, Method: PREINCUBATION
Setting [3] is: Test System: AMES SALMONELLA TYPHIMURIUM, Strain/Indicator: TA1535, Metabolic Activation: NONE, Method: PREINCUBATION
[4] abbreviates: Test System: AMES SALMONELLA TYPHIMURIUM, Strain/Indicator: TA1537, Metabolic Activation: NONE, Method: PREINCUBATION

SMILES strings stand for the structures. Calls of active or inactive are those of the source. No rule for the calls is given here.

As for `O=C1C=CC(=O)c2ccccc21`, the mutagenic call is “active; positive (structural changes). toxic at 0.014 mg/ml” (End Point: In vitro chromosomal aberrations, Test System: Chinese hamster lung (CHL/IU) cells, Metabolic Activation: Rat, Liver, S9, Phenobarbital and 5,6-benzoflavone); “inactive; negative” (Test System: AMES SALMONELLA TYPHIMURIUM, Strain/Indicator: TA97, Metabolic Activation: NONE, Method: PREINCUBATION); “inactive; negative” (Test System: AMES SALMONELLA TYPHIMURIUM, Strain/Indicator: TA97, Metabolic Activation: NONE, Method: STANDARD PLATE); “inactive; negative” (Test System: AMES SALMONELLA TYPHIMURIUM, Strain/Indicator: TA97, Metabolic Activation: RAT, LIVER, S-9, PCB, Method: STANDARD PLATE); “active; positive” (Test System: AMES SALMONELLA TYPHIMURIUM, Strain/Indicator: TA97, Metabolic Activation: RAT, LIVER, S-9, PHENOBARBITAL AND 5,6-BENZOFLAVONE, Method: PREINCUBATION); “inactive; negative” under setting [1]. Moreover, the mutagenic call (Test System: AMES SALMONELLA TYPHIMURIUM, Strain/Indicator: TA98, Metabolic Activation: NONE, Method: STANDARD PLATE) was “inactive; negative”; the mutagenic call (Test System: AMES SALMONELLA TYPHIMURIUM, Strain/Indicator: TA98, Metabolic Activation: RAT, LIVER, S-9, PCB, Method: STANDARD PLATE) was “inactive; negative”; the mutagenic call (Test System: AMES SALMONELLA TYPHIMURIUM, Strain/Indicator: TA98, Metabolic Activation: RAT, LIVER, S-9, PHENOBARBITAL AND 5,6-BENZOFLAVONE, Method: PREINCUBATION) was “inactive; negative”; the mutagenic call under setting [2] is “active; positive”; the mutagenic call (Test System: AMES SALMONELLA TYPHIMURIUM, Strain/Indicator: TA100, Metabolic Activation: NONE, Method: STANDARD PLATE) was “inactive; negative”; the mutagenic call (Test System: AMES SALMONELLA TYPHIMURIUM, Strain/Indicator: TA100, Metabolic Activation: RAT, LIVER, S-9, PCB, Method: STANDARD PLATE) is “inactive; negative”. Also, the mutagenic call runs as follows: (Test System: AMES SALMONELLA TYPHIMURIUM, Strain/Indicator: TA100, Metabolic Activation: RAT, LIVER, S-9, PHENOBARBITAL AND 5,6-BENZOFLAVONE, Method: PREINCUBATION) “active; positive”; (Test System: AMES SALMONELLA TYPHIMURIUM, Strain/Indicator: TA102, Metabolic Activation: NONE, Method: PREINCUBATION) “inactive; negative”; (Test System: AMES SALMONELLA TYPHIMURIUM, Strain/Indicator: TA102, Metabolic Activation: RAT, LIVER, S-9, PHENOBARBITAL AND 5,6-BENZOFLAVONE, Method: PREINCUBATION) “active; positive”; (Test System: AMES SALMONELLA TYPHIMURIUM, Strain/Indicator: TA104, Metabolic Activation: NONE, Method: PREINCUBATION) “active; positive”; (Test System: AMES SALMONELLA TYPHIMURIUM, Strain/Indicator: TA104, Metabolic Activation: RAT, LIVER, S-9, PHENOBARBITAL AND 5,6-BENZOFLAVONE, Method: PREINCUBATION) “active; positive”; under setting [3], “inactive; negative”. The mutagenic call is, setting by setting: (Test System: AMES SALMONELLA TYPHIMURIUM, Strain/Indicator: TA1535, Metabolic Activation: RAT, LIVER, S-9, PHENOBARBITAL AND 5,6-BENZOFLAVONE, Method: PREINCUBATION) “inactive; negative”; under setting [4], “inactive; negative”; (Test System: AMES SALMONELLA TYPHIMURIUM, Strain/Indicator: TA1537, Metabolic Activation: RAT, LIVER, S-9, PHENOBARBITAL AND 5,6-BENZOFLAVONE, Method: PREINCUBATION) “inactive; negative”; (Test System: AMES SALMONELLA TYPHIMURIUM, Strain/Indicator: TA1538, Metabolic Activation: NONE, Method: PREINCUBATION) “inactive; negative”; (Test System: AMES SALMONELLA TYPHIMURIUM, Strain/Indicator: TA1538, Metabolic Activation: RAT, LIVER, S-9, PHENOBARBITAL AND 5,6-BENZOFLAVONE, Method: PREINCUBATION) “inactive; negative”; (Test System: AMES SALMONELLA TYPHIMURIUM, Strain/Indicator: TA2637, Metabolic Activation: NONE, Method: PREINCUBATION) “active; positive”. The mutagenic call is “active; positive” (Test System: AMES SALMONELLA TYPHIMURIUM, Strain/Indicator: TA2637, Metabolic Activation: RAT, LIVER, S-9, PHENOBARBITAL AND 5,6-BENZOFLAVONE, Method: PREINCUBATION); “inactive; negative” (Test System: Ames Salmonella typhimurium, Strain/Indicator: TA97, Metabolic Activation: None, Method: Preincubation); “inactive; negative” (Test System: Ames Salmonella typhimurium, Strain/Indicator: TA97, Metabolic Activation: Rat, Liver, S9, Aroclor 1254, Method: Preincubation); “inactive; negative” (Test System: Ames Salmonella typhimurium, Strain/Indicator: TA98, Metabolic Activation: None, Method: Preincubation); “inactive; negative” (Test System: Ames Salmonella typhimurium, Strain/Indicator: TA98, Metabolic Activation: Rat, Liver, S9, Aroclor 1254, Method: Preincubation); “inactive; negative” (Test System: Ames Salmonella typhimurium, Strain/Indicator: TA100, Metabolic Activation: None, Method: Preincubation). For the same molecule, the mutagenic call reads like this: (Test System: Ames Salmonella typhimurium, Strain/Indicator: TA100, Metabolic Activation: Rat, Liver, S9, Aroclor 1254, Method: Preincubation) “inactive; negative”; (Test System: Ames Salmonella typhimurium, Strain/Indicator: TA102, Metabolic Activation: None, Method: Preincubation) “inactive; negative”; (Test System: Ames Salmonella typhimurium, Strain/Indicator: TA102, Metabolic Activation: Rat, Liver, S9, Aroclor 1254, Method: Preincubation) “inactive; negative”.

With `CCOC(=O)c1ccccc1N`, the mutagenic call (Test System: AMES SALMONELLA TYPHIMURIUM, Strain/Indicator: TA98, Metabolic Activation: HAMSTER, LIVER, S-9, AROCLOR 1254 (10%), Method: PREINCUBATION) is “inactive; negative”; the mutagenic call under setting [1] was “inactive; negative”; the mutagenic call (Test System: AMES SALMONELLA TYPHIMURIUM, Strain/Indicator: TA98, Metabolic Activation: RAT, LIVER, S-9, AROCLOR 1254 (10%), Method: PREINCUBATION) is “inactive; negative”; the mutagenic call (Test System: AMES SALMONELLA TYPHIMURIUM, Strain/Indicator: TA100, Metabolic Activation: HAMSTER, LIVER, S-9, AROCLOR 1254 (10%), Method: PREINCUBATION) is “inactive; negative”; the mutagenic call under setting [2] is “inactive; negative”; the mutagenic call (Test System: AMES SALMONELLA TYPHIMURIUM, Strain/Indicator: TA100, Metabolic Activation: RAT, LIVER, S-9, AROCLOR 1254 (10%), Method: PREINCUBATION) was “inactive; negative”. In addition, the mutagenic call is “inactive; negative” (Test System: AMES SALMONELLA TYPHIMURIUM, Strain/Indicator: TA1535, Metabolic Activation: HAMSTER, LIVER, S-9, AROCLOR 1254 (10%), Method: PREINCUBATION); “inactive; negative” under setting [3]; “inactive; negative” (Test System: AMES SALMONELLA TYPHIMURIUM, Strain/Indicator: TA1535, Metabolic Activation: RAT, LIVER, S-9, AROCLOR 1254 (10%), Method: PREINCUBATION); “inactive; negative” (Test System: AMES SALMONELLA TYPHIMURIUM, Strain/Indicator: TA1537, Metabolic Activation: HAMSTER, LIVER, S-9, AROCLOR 1254 (10%), Method: PREINCUBATION); “inactive; negative” under setting [4]; “inactive; negative” (Test System: AMES SALMONELLA TYPHIMURIUM, Strain/Indicator: TA1537, Metabolic Activation: RAT, LIVER, S-9, AROCLOR 1254 (10%), Method: PREINCUBATION).

Turning to `C=CC(O)C=C`, the mutagenic call runs as follows: under setting [1], “inactive; negative”; (Test System: AMES SALMONELLA TYPHIMURIUM, Strain/Indicator: TA98, Metabolic Activation: S-9, Method: PREINCUBATION) “inactive; negative”; under setting [2], “inactive; negative”; (Test System: AMES SALMONELLA TYPHIMURIUM, Strain/Indicator: TA100, Metabolic Activation: S-9, Method: PREINCUBATION) “active; positive”; under setting [3], “inactive; negative”; (Test System: AMES SALMONELLA TYPHIMURIUM, Strain/Indicator: TA1535, Metabolic Activation: S-9, Method: PREINCUBATION) “inactive; negative”. Moreover, the mutagenic call runs as follows: (Test System: E.COLI, Strain/Indicator: WP2UVRA/PKM101, Metabolic Activation: NONE, Method: PREINCUBATION) “inactive; negative”; (Test System: E.COLI, Strain/Indicator: WP2UVRA/PKM101, Metabolic Activation: S-9, Method: PREINCUBATION) “inactive; negative”.

For the molecule `Cc1cc(C)cc([N+](=O)[O-])c1`, the mutagenic call reads like this: under setting [1], “inactive; negative”; (Test System: AMES SALMONELLA TYPHIMURIUM, Strain/Indicator: TA98, Metabolic Activation: RAT, LIVER, S-9, KANECHLOR 500, Method: PREINCUBATION) “inactive; negative”; under setting [2], “inactive; negative”; (Test System: AMES SALMONELLA TYPHIMURIUM, Strain/Indicator: TA100, Metabolic Activation: RAT, LIVER, S-9, KANECHLOR 500, Method: PREINCUBATION) “inactive; negative”.

These data come from PubChem BioAssay AID1259407 (Chemical Carcinogenesis Research Information System (CCRIS), 2018).
